Values of other authors as cited in US20230149510A1, “METHOD FOR ALLEVIATING ARTHRITIS USING EPIDERMAL GROWTH FACTOR” (Lovin BioMed Co., Ltd., priority 2021, published 2023).

Legend:
[1] = test system: collagen-induced arthritis; conditions: Swanson C. D. et al. (2012); cited from earlier work
OA = conditions: Sun H. et al. (2018); cited from earlier work

Compound	effect on collagen-induced arthritis [1]	effect on symptoms in mice with OA (OA)
C#Cc1cccc(Nc2ncnc3cc(OCCOC)c(OCCOC)cc23)c1 [erlotinib]	can alleviate collagen-induced arthritis	
COc1cc2ncnc(Nc3ccc(F)c(Cl)c3)c2cc1OCCCN1CCOCC1 [gefitinib]		can improve symptoms in mice with OA
